This is an account of results in patent US20260070902A1, “SULFONYL DERIVATIVES AS CCR6 INHIBITORS” (Hoffmann-La Roche Inc., priority 2022, published 2026).

Holding throughout (format): cell-based
For assay [1], the target named is T1, human CCR6 (Homo sapiens, UniProt P51684).
T1 sequence (P51684 1-374): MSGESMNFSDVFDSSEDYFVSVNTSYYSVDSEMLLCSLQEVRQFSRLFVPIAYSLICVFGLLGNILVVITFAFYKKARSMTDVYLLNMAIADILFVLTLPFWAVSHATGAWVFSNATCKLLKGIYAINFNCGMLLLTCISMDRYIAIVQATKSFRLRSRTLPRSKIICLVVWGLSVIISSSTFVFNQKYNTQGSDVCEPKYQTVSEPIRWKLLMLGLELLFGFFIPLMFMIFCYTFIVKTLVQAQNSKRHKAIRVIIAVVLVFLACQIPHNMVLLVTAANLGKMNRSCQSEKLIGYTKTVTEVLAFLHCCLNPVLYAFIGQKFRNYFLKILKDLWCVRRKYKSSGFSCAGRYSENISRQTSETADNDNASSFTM
Nature of the assay: CHO-K1 CCR6 chemotaxis assay towards CCL20. The settings on record: relative -Log IC50; CHO-K1 cells overexpressing human CCR6; migration towards 100 ng/ml CCL20; 4 h. In outline: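 Human CCR6-overexpressing CHO-K1 cells (2*10^6 cells/ml) were preincubated 30 min at 37 °C with compound (0.2% DMSO), then allowed to migrate 4 h through 8 µm Transwell pores toward 100 ng/ml CCL20. Migrated cells were counted by CellTiter Glo. −Log IC50 came from four-parameter fits normalised to DMSO without/with CCL20.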

A further assay relates to Human CD4+ T cells. In words: CD4+ T cells chemotaxis assay towards CCL20. Particulars: Homo sapiens, CD4+ T cell, 3 h, relative -Log IC50, human CD4+ T cells stimulated with anti-CD3 and anti-CD28, migration towards 150 ng/ml CCL20. The text has this:
CD4+ T Cells Chemotaxis Assay Towards CCL20
Human CD4+ T cells were isolated from buffy coats of healthy donors using a CD4+ T Cell Isolation Kit (Miltenyi Biotec130-096-533). Isolated T cells were stimulated overnight with anti-CD3 and anti-CD28 antibodies (Biolegend 300314/302934) in growth medium (RPMI1640, 10% heat-inactivated FBS, 1× pen/strep (Gibco 15140)). For the chemotaxis assay, Corning Transwell plates were used with a pore size of 5 m (Corning 3388). T cells were counted and diluted to 6*10^6 cells/ml in chemotaxis medium (RPMI1640, 1% BSA, pen/strep). Compounds were four-fold serially diluted in DMSO. Further dilutions were made in chemotaxis medium. Cells were incubated with test compounds for 30 min at 37° C. prior to initiation of the assay (3*10^6 cells/ml). Final DMSO concentration in the assay was 0.2%. Wells of the Transwell plates were filled with 200 μl chemotaxis medium containing 150 ng/ml CCL20 (R&D systems 360-MP). 50 μl of the cell/compound suspension was added to the inserts of the Transwell plates (150,000 cells/insert). The Transwell plates were placed in an incubator at 37° C., 5% CO2 for 3 h. After 3 h, the number of migrated cells was quantified using CellTiter Glo (Promega). Percentage inhibition values were calculated based on the low and high signal obtained with 0.2% DMSO in chemotaxis medium without and with CCL20, respectively. The relative −Log IC50 was determined with GraphPad Prism 9 using a four-parameter dose-response model.

Assay [2] concerns the target T1, human CCR6. In words: Human CCR6-CRE reporter assay. The settings on record: relative -Log IC50; 293FT cells transfected with human CCR6 and CRE-luciferase reporter; 6 μM Forskolin, 6 nM CCL20; 5 h. Details: The second construct contained the open reading frame of human CCR6 in the pUNO1 backbone; host or cells: 293FT cells. In outline:
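293FT cells transiently co-transfected with human CCR6 and a CRE-luc2P reporter, used 48 h later. Compounds incubated with cells in medium containing 6 μM Forskolin and 6 nM CCL20 (assay-medium levels), 0.1% DMSO final, 5 h at 37° C; luminescence read, relative −Log IC50 from four-parameter fit.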

SMILES strings stand for the structures. pIC50: −log10 of the molar value.

With `CC(C)c1nnc2ccc(-c3ccc(S(=N)(=O)[C@H]4CC[C@H](Nc5ccc(S(F)(F)(F)(F)F)cc5)CC4)cc3)cn12` (relative stereo) [Example 102, {4-[3-(propan-2-yl)-[1,2,4]triazolo[4,3-a]pyridin-6-yl]phenyl}[trans-4-{[4-(pentafluoro-λ^6-sulfanyl)phenyl]Amino}cyclohexyl](imino)-λ^6-sulfanone], the pIC50 on human CCR6 [1] was 6.80; with Human CD4+ T cells, 7.30; at human CCR6 [2], 6.90.
In the case of `Cc1[nH]nc2ccc(-c3ccc(S(=O)(=O)[C@H]4CC[C@H](Nc5ccc(S(F)(F)(F)(F)F)cc5)CC4)cc3)cc12` [Example 6, 4-(pentafluoro-λ^6-sulfanyl)-N-[trans-4-[4-(3-methyl-2H-indazol-5-yl)benzenesulfonyl]cyclohexyl]aniline], the negative logarithm of the IC50 (pIC50) at human CCR6 [1] is 7.60; in the assay with Human CD4+ T cells, 9.20; against human CCR6 [2], 7.40.
Turning to `N=S(=O)(c1ccc(-c2ccnc(C(N)=O)c2)cc1)[C@H]1CC[C@H](Nc2ccc(S(F)(F)(F)(F)F)cc2)CC1` (stereo partly drawn) [Example 91, 4-(4-{[trans-4-{[4-(pentafluoro-λ^6-sulfanyl)phenyl]Amino}cyclohexyl]sulfonimidoyl}phenyl)pyridine-2-carboxamide], the values for the negative-log IC50 (pIC50) with Human CD4+ T cells and at human CCR6 [2] were 7.50 and 6.90, respectively.
The matching figures for `N=S(=O)(c1ccc(-c2ccnc(C(N)=O)c2)cc1)N1CCC(Nc2ccc(S(F)(F)(F)(F)F)cc2)CC1` (centres unmarked) [Example 125, 4-{4-[(4-{[4-(pentafluoro-λ^6-sulfanyl)phenyl]Amino}piperidin-1-yl)sulfonimidoyl]phenyl}pyridine-2-carboxamide]: 6.90 and 6.70.
`COC1CC2(CCN(c3ccc(S(=O)(=O)N4CCC(Nc5ccc(S(F)(F)(F)(F)F)cc5)CC4)cc3)CC2)C1` [Example 132, 1-(4-{2-methoxy-7-azaspiro[3.5]nonan-7-yl}benzenesulfonyl)-N-[4-(pentafluoro-λ^6-sulfanyl)phenyl]piperidin-4-amine]: the pIC50 in the assay on Human CD4+ T cells is 7.70; at human CCR6 [2], 7.10.
For `O=C1NC(=O)C2(CCN(c3ccc(S(=O)(=O)N4CCC(Nc5ccc(S(F)(F)(F)(F)F)cc5)CC4)cc3)CC2)N1` [Example 133, 8-{4-[(4-{[4-(pentafluoro-λ^6-sulfanyl)phenyl]amino}piperidin-1-yl)sulfonyl]phenyl}-1,3,8-triazaspiro[4.5]decane-2,4-dione], in that order: 8.40 and 7.40.
For `O=C1NCCC12CCN(c1ccc(S(=O)(=O)N3CCC(Nc4ccc(S(F)(F)(F)(F)F)cc4)CC3)cc1)CC2` [Example 134, 8-{4-[(4-{[4-(pentafluoro-λ^6-sulfanyl)phenyl]amino}piperidin-1-yl)sulfonyl]phenyl}-2,8-diazaspiro[4.5]decan-1-one], in that order: 8.00 and 6.80.
On to `O=C1NC2(CCN(c3ccc(S(=O)(=O)N4CCC(Nc5ccc(S(F)(F)(F)(F)F)cc5)CC4)cc3)CC2)CO1` [Example 135, 8-{4-[(4-{[4-(pentafluoro-λ^6-sulfanyl)phenyl]amino}piperidin-1-yl)sulfonyl]phenyl}-3-oxa-1,8-diazaspiro[4.5]decan-2-one], for which the results for the negative logarithm of the IC50 (pIC50) in the assay with Human CD4+ T cells and at human CCR6 [2] were 7.60 and 6.90, respectively.
`O=S(=O)(c1ccc(N2CCC3(CC2)COC3)cc1)N1CCC(Nc2ccc(S(F)(F)(F)(F)F)cc2)CC1` [Example 136, 1-(4-{2-oxa-7-azaspiro[3.5]nonan-7-yl}benzenesulfonyl)-N-[4-(pentafluoro-λ^6-sulfanyl)phenyl]piperidin-4-amine]: the pIC50 was 6.70 with Human CD4+ T cells and 6.90 at human CCR6 [2].
The matching figures for `O=S(=O)(c1ccc(N2CC3CCC(C2)O3)cc1)N1CCC(Nc2ccc(S(F)(F)(F)(F)F)cc2)CC1` [Example 137, 1-(4-{8-oxa-3-azabicyclo[3.2.1]octan-3-yl}benzenesulfonyl)-N-[4-(pentafluoro-λ^6-sulfanyl)phenyl]piperidin-4-amine]: 6.90 and 6.70.
For `CC(C)c1nnc2cnc(-c3ccc(S(=O)(=O)N4CCC(Nc5ccc(S(F)(F)(F)(F)F)cc5)CC4)cc3)cn12` [Example 140, N-[4-(pentafluoro-λ^6-sulfanyl)phenyl]-1-{4-[3-(propan-2-yl)-[1,2,4]triazolo[4,3-a]pyrazin-6-yl]benzenesulfonyl}piperidin-4-amine], in that order: 8.60 and 7.20.
For `NC(=O)c1cc(-c2ccc(S(=O)(=O)[C@H]3CC[C@H](Nc4ccc(S(F)(F)(F)(F)F)cc4)CC3)cc2)cs1` [Example 148, 4-(4-{[trans-4-{[4-(pentafluoro-λ^6-sulfanyl)phenyl]amino}cyclohexyl]sulfonyl}phenyl)thiophene-2-carboxamide], in that order: 8.30 and 7.30.
As to `Cc1n[nH]c2ncc(-c3ccc(S(=O)(=O)[C@H]4CC[C@H](Nc5ccc(S(F)(F)(F)(F)F)cc5)CC4)cc3)cc12` [Example 150, 4-(pentafluoro-λ^6-sulfanyl)-N-[trans-4-(4-{3-methyl-1H-pyrazolo[3,4-b]pyridin-5-yl}benzenesulfonyl)cyclohexyl]aniline], the negative logarithm of the IC50 (pIC50) is 9.00 with Human CD4+ T cells and 7.20 against human CCR6 [2].
The matching figures for `O=S(=O)(c1ccc(-c2cc(C(F)(F)F)c3nccn3c2)cc1)[C@H]1CC[C@H](Nc2ccc(S(F)(F)(F)(F)F)cc2)CC1` [Example 151, 4-(pentafluoro-λ^6-sulfanyl)-N-[trans-4-{4-[8-(trifluoromethyl)imidazo[1,2-a]pyridin-6-yl]benzenesulfonyl}cyclohexyl]aniline]: 8.20 and 7.20.
With `O=c1[nH]ccn2cc(-c3ccc(S(=O)(=O)[C@H]4CC[C@H](Nc5ccc(S(F)(F)(F)(F)F)cc5)CC4)cc3)cc12` [Example 154, 7-(4-{[trans-4-{[4-(pentafluoro-λ^6-sulfanyl)phenyl]amino}cyclohexyl]sulfonyl}phenyl)-1H,2H-pyrrolo[1,2-a]pyrazin-1-one], the values for the pIC50 in the assay on Human CD4+ T cells and against human CCR6 [2] were 8.10 and 6.90, respectively.
The matching figures for `N#Cc1cc(-c2ccc(S(=O)(=O)[C@H]3CC[C@H](Nc4ccc(S(F)(F)(F)(F)F)cc4)CC3)cc2)cn2ccnc12` [Example 160, 6-(4-{[trans-4-{[4-(pentafluoro-λ^6-sulfanyl)phenyl]amino}cyclohexyl]sulfonyl}phenyl)imidazo[1,2-a]pyridine-8-carbonitrile]: 8.40 and 7.30.
For `O=S(=O)(c1ccc(-c2ccc3nnc([C@@H]4CCCN4)n3c2)cc1)[C@H]1CC[C@H](Nc2ccc(S(F)(F)(F)(F)F)cc2)CC1` [Example 161, 4-(pentafluoro-λ^6-sulfanyl)-N-[trans-4-(4-{3-[(2S)-pyrrolidin-2-yl]-[1,2,4]triazolo[4,3-a]pyridin-6-yl}benzenesulfonyl)cyclohexyl]aniline], in that order: 8.10 and 7.10.
With `O=S(=O)(c1ccc(-c2ccc3nnc(C4CNC4)n3c2)cc1)[C@H]1CC[C@H](Nc2ccc(S(F)(F)(F)(F)F)cc2)CC1` [Example 168, 4-(pentafluoro-λ^6-sulfanyl)-N-[trans-4-{4-[3-(azetidin-3-yl)-[1,2,4]triazolo[4,3-a]pyridin-6-yl]benzenesulfonyl}cyclohexyl]aniline], the pIC50 is 7.00 in the assay with Human CD4+ T cells and 6.60 at human CCR6 [2].
